Measured values published in patent publication US20190151371A1, “PROCESS FOR CONTINUOUS CELL CULTURE OF ISLET CELLS” (Georgetown University, priority 2016, published 2019).

Legend:
airway epithelial cells = settings: cited from earlier work
islet cells = assay: Islet cell culture with upstream or downstream ROCK pathway inhibitor in place of a ROCK inhibitor; assay type: cell-based, human; settings: used in the culture conditions in place of a ROCK inhibitor
Source text: As used herein, inhibiting ROCK can mean to reduce the activity, function or expression of at least one of ROCK1 or ROCK2. […] In general, ROCK phosphorylates LIM kinase and myosin light chain (MLC) phosphatase after being activated through binding of GTP-bound Rho. One embodiment of the present invention thus involves blocking the upstream pathway of ROCK1 and/or ROCK2, for example GTP-bound Rho, such that ROCK1 and/or ROCK2 is not activated or its activity is reduced over untreated cells. Other upstream effectors include but are not limited to, integrins, growth factor receptors, including but not limited to, TGF-beta and EGFR, cadherins, G protein coupled receptors and the like. Another embodiment of the present invention thus involves blocking the activity, function or expression of downstream effector molecules of activated ROCK1 and/or ROCK2 such that ROCK1 and/or ROCK2 cannot propagate any signal or can only propagate a reduced signal over untreated cells. Downstream effectors include but are not limited to, Myosin phosphatase-targeting protein (MYPT), vimentin, LIMK, Myosin light chain kinase, NHE1, cofilin, Myosin II and the like. […] Upstream or downstream inhibition of ROCK, in place of direct ROCK inhibition and in conjunction with the other culture conditions described and required herein, may or may not generate conditionally immortalized islet cells. […]

Compound | effect on airway epithelial cells (airway epithelial cells) | effect on cell differentiation and proliferation in vitro (islet cells)
O=S(=O)(c1cccc2cnccc12)N1CCCNCC1 [HA 1077, fasudil] | induces membrane ruffling, loss of actin stress fibers and apoptosis | 
C[C@@H](N)[C@H]1CC[C@H](C(=O)Nc2ccncc2)CC1 [Y-27632] | induces membrane ruffling, loss of actin stress fibers and apoptosis | 
Cc1ccc2c(c1)C(=O)C1(O)CCN(c3ccccc3)C1=N2 (stereo not shown) [blebbistatin] |  | allow the cells to bypass differentiation and allow proliferation in vitro
C3 transferase |  | allow the cells to bypass differentiation and allow proliferation in vitro
